In publication PMC12655719, “Evaluating the Effectiveness of Reference Solvent Solubility Calculations for Binary Mixtures Based on Pure Solvent Solubility: The Case of Phenolic Acids” (Molecules, 2025):

Assay: Solubility determination of saturated solutions (shaking 24 h at 25 °C, filtration, HPLC/UPLC-UV quantification)
Assay type: physicochemical
Conditions: for log(x1)exp: 1,4-dioxane + Water, code 1 (this work)
Protocol: In the case of binary mixtures, the organic solvent was mixed with water in appropriate molar fractions. Water was also used as a single-component solvent. For each system, three replicate samples were prepared.
The prepared samples were placed in an Orbital Shaker ES-20/60 incubator from Biosan (Riga, Latvia) and shaken for 24 h at 25 °C. The temperature was maintained with an accuracy of ±0.1 °C. During the equilibration process, the samples were agitated at a rate of 60 rpm while being thermostated.
Following equilibration, the samples were filtered through PTFE syringe filters with a 0.22 µm pore size. To prevent precipitation during this step, all test tubes, syringes, and filters were preheated to the corresponding temperature of the solution. Subsequently, an aliquot of the filtrate was transferred to a vial for chromatographic analysis.
Prior to injection, samples were diluted with methanol and injected into a Luna C18 column (250 × 10 mm) equipped with a guard column, both from Phenomenex (Torrance, CA, USA). The injection volume was 100 µL, and the column temperature was maintained at 30 °C. The mobile phase consisted of 0.5% acetic acid (A) and acetonitrile (B), applied with a linear gradient at a flow rate of 5 mL/min: initially 2% B; 1–7 min, 2–50% B; 7–9 min, 50% B; 9–9.5 min, 50–2% B; and 9–18 min, 2% B. The UV absorbance was monitored in the range of 210–400 nm. The chromatographic system was operated with MassLynx 4.1 software (Waters, […], USA). Quantitative analysis was performed using the TargetLynx application at 293 nm. All samples were analyzed in triplicate (technical replicates).
The system included the Acquity Binary Solvent Manager, Acquity Sample Manager, and Acquity Column Manager (Waters, Milford, CT, USA). Prior to analysis, samples were diluted with methanol, and 0.3 µL was injected. Separation was performed on a ACQUITY UPLC CSH C18 column (1.7 µm, 2.1 × 30 mm, Waters, Milford, CT, USA) maintained at 40 °C. UV detection was carried out at 293 nm using a tunable dual-wavelength UV/Vis detector (TUV, Waters, Milford, CT, USA). […] Each sample was analyzed in three technical replicates.
To calculate mole fractions of the solutes, the density of each saturated solution was determined by weighing 1 mL of the sample using an analytical balance (RADWAG AS 110.R2 PLUS; Radwag, Radom, Poland).

SMILES: O=C(O)/C=C/c1ccc(O)c(O)c1 [caffeic acid, Caffeic acid]
- log(x1)exp (x2* 0.00, x3* 1.00, T 25.0 °C): -4.023
- log(x1)exp (x2* 0.10, x3* 0.90, T 25.0 °C): -2.614
- log(x1)exp (x2* 0.20, x3* 0.80, T 25.0 °C): -1.897
- log(x1)exp (x2* 0.30, x3* 0.70, T 25.0 °C): -1.603
- log(x1)exp (x2* 0.40, x3* 0.60, T 25.0 °C): -1.455
- x1 × 102 (mole fraction of solute) (1,4-dioxane-water, x2* = 0.0, 25 °C): 0.009 mole fraction × 102
- x1 × 102 (mole fraction of solute) (1,4-dioxane-water, x2* = 0.1, 25 °C): 0.243 mole fraction × 102
- x1 × 102 (mole fraction of solute) (1,4-dioxane-water, x2* = 0.2, 25 °C): 1.269 mole fraction × 102
- x1 × 102 (mole fraction of solute) (1,4-dioxane-water, x2* = 0.3, 25 °C): 2.495 mole fraction × 102
- x1 × 102 (mole fraction of solute) (1,4-dioxane-water, x2* = 0.4, 25 °C): 3.504 mole fraction × 102
- x1 × 102 (mole fraction of solute) (1,4-dioxane-water, x2* = 0.5, 25 °C): 4.260 mole fraction × 102
- x1 × 102 (mole fraction of solute) (1,4-dioxane-water, x2* = 0.6, 25 °C): 4.647 mole fraction × 102
- x1 × 102 (mole fraction of solute) (1,4-dioxane-water, x2* = 0.7, 25 °C): 4.698 mole fraction × 102
- x1 × 102 (mole fraction of solute) (1,4-dioxane-water, x2* = 0.8, 25 °C): 4.232 mole fraction × 102
- x1 × 102 (mole fraction of solute) (1,4-dioxane-water, x2* = 0.9, 25 °C): 2.850 mole fraction × 102
- x1 × 102 (mole fraction of solute) (1,4-dioxane-water, x2* = 1.0, 25 °C): 1.634 mole fraction × 102
- mole fraction solubility (x1) (1,4-dioxane–water, x2* = 0.0 (pure water), 25 °C): 9.0 × 10^−5 mole fraction
- mole fraction solubility (x1) (1,4-dioxane–water, x2* = 0.7, 25 °C): 4.698 × 10^−2 mole fraction
- x1 × 102 (mole fraction of solute) (4-FM-water, x2* = 0.1, 25 °C): 0.785 mole fraction × 102
- x1 × 102 (mole fraction of solute) (4-FM-water, x2* = 0.2, 25 °C): 2.306 mole fraction × 102
- x1 × 102 (mole fraction of solute) (4-FM-water, x2* = 0.3, 25 °C): 4.043 mole fraction × 102
- x1 × 102 (mole fraction of solute) (4-FM-water, x2* = 0.4, 25 °C): 6.072 mole fraction × 102
- x1 × 102 (mole fraction of solute) (4-FM-water, x2* = 0.5, 25 °C): 7.935 mole fraction × 102
- x1 × 102 (mole fraction of solute) (4-FM-water, x2* = 0.6, 25 °C): 10.036 mole fraction × 102
- x1 × 102 (mole fraction of solute) (4-FM-water, x2* = 0.7, 25 °C): 11.977 mole fraction × 102
- x1 × 102 (mole fraction of solute) (4-FM-water, x2* = 0.8, 25 °C): 13.855 mole fraction × 102
- x1 × 102 (mole fraction of solute) (4-FM-water, x2* = 0.9, 25 °C): 15.930 mole fraction × 102
- x1 × 102 (mole fraction of solute) (4-FM-water, x2* = 1.0, 25 °C): 17.932 mole fraction × 102
- x1 × 102 (mole fraction of solute) (DMSO-water, x2* = 0.1, 25 °C): 0.209 mole fraction × 102
- x1 × 102 (mole fraction of solute) (DMSO-water, x2* = 0.2, 25 °C): 1.527 mole fraction × 102
- x1 × 102 (mole fraction of solute) (DMSO-water, x2* = 0.3, 25 °C): 4.718 mole fraction × 102
- x1 × 102 (mole fraction of solute) (DMSO-water, x2* = 0.4, 25 °C): 11.316 mole fraction × 102
- x1 × 102 (mole fraction of solute) (DMSO-water, x2* = 0.5, 25 °C): 20.824 mole fraction × 102
- x1 × 102 (mole fraction of solute) (DMSO-water, x2* = 0.6, 25 °C): 28.915 mole fraction × 102
- x1 × 102 (mole fraction of solute) (DMSO-water, x2* = 0.7, 25 °C): 33.598 mole fraction × 102
- x1 × 102 (mole fraction of solute) (DMSO-water, x2* = 0.8, 25 °C): 34.931 mole fraction × 102
- x1 × 102 (mole fraction of solute) (DMSO-water, x2* = 0.9, 25 °C): 31.904 mole fraction × 102
- x1 × 102 (mole fraction of solute) (DMSO-water, x2* = 1.0, 25 °C): 22.675 mole fraction × 102
- mole fraction solubility (x1) (DMSO–water, x2* = 0.8, 25 °C): 34.931 × 10^−2 mole fraction
- mole fraction solubility (x1) (pure 1,4-dioxane (x2* = 1.0), 25 °C): 1.634 × 10^−2 mole fraction
- mole fraction solubility (x1) (pure 4-FM (4-formylmorpholine, x2* = 1.0), 25 °C): 17.932 × 10^−2 mole fraction
- mole fraction solubility (x1) (pure DMSO, 25 °C): 22.675 × 10^−2 mole fraction
